Read-outs that look alike come from different tables or passages of the source.
What was measured:
rice blast = assay: microbe, parasite or virus in culture; type: cell-based; settings: for the inhibition rate against rice blast (%) 0.03 mg/L: Table 21, 0.03 mg/L; for the inhibition rate against rice blast (%) 0.1 mg/L: Table 21, 0.1 mg/L; for the inhibition rate against rice blast (%) 0.3 mg/L: Table 21, 0.3 mg/L
cucumber downy mildew = assay: Protectant activity in vivo (whole plant) against cucumber downy mildew; settings: for pest or weed control at 12.5 µg/mL / pest or weed control at 25 µg/mL / pest or weed control at 50 µg/mL / pest or weed control at 100 µg/mL / pest or weed control at 400 µg/mL: Cucumis sativus, 168 h; for pest or weed control at 25 µg/mL / pest or weed control at 50 µg/mL / pest or weed control at 100 µg/mL: read-out: the protectant activity (%) against cucumber downy mildew
Method in brief: (§1)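 Whole plants sprayed with test solution, water plus 0.1% Tween-80 and no more than 5% solvent, then inoculated with the pathogen after 24 h. Plants held in humidity chamber or directly in greenhouse depending on fungus. Disease control scored by eye at about 7 days.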

corn rust = assay: Protectant activity in vivo (whole plant) against corn rust
Method in brief: as §1

wheat powdery mildew = assay: Protectant activity in vivo (whole plant) against wheat powdery mildew; settings: for pest or weed control at 400 µg/mL: Triticum aestivum, 168 h
Description: The method is as followed: The whole plant is used in this test. The compound is dissolved in a proper solvent to get mother solution. The proper solvent is selected from acetone, methanol, DMF and so on according to their dissolving capability to the sample. The volume rate of solvent and testing solution (v/v) is equal to or less than 5%. The mother solution is diluted with water containing 0.1% tween-80 to get the testing solution whose concentration is designed. The testing solution is sprayed to the host plant by a special plant sprayer. The plant is inoculated with fungus after 24 hours. According to the infecting characteristic of fungus, the plant is stored in a humidity chamber and then transferred into greenhouse after infection is finished. And the other plants are placed in greenhouse directly. The activity of compound is obtained by eyeballing after 7 days in common.

cucumber gray mold = assay: Activity in vitro (96-well, High Through Put): inhibition rate against cucumber gray mold; type: cell-based; settings: for inhibition at 0.9 µg/mL / inhibition at 2.8 µg/mL / inhibition at 8.3 µg/mL: read-out: the inhibition rate against cucumber gray mold (%); for inhibition at 25 µg/mL / inhibition rate against cucumber gray mold: in vitro; for inhibition at 25 µg/mL: dose 25 mg/L
Method in brief: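 Scored visually at 24 hours relative to control, the readout is pathogen germination or growth. Test solutions used acetone, methanol or DMF as solvent and were mixed with pathogen suspension in a sterile high-throughput format at constant temperature.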

[1] = Zea mays, 168 h, dose 400 mg/L, read-out: protectant activity against corn rust in vivo

N#Cc1c(Cl)c(Cl)c(Nc2nc(Cl)c(Cl)c(Cl)c2Cl)c(C#N)c1Cl [Compound B-128b]
the inhibition rate against rice blast (%) 0.03 mg/L (rice blast): 80%
the inhibition rate against rice blast (%) 0.1 mg/L (rice blast): 80%
the inhibition rate against rice blast (%) 0.3 mg/L (rice blast): 100%
protectant activity against cucumber downy mildew in vivo (cucumber downy mildew; dose 100 mg/L): 100%
protectant activity against cucumber downy mildew in vivo (cucumber downy mildew; dose 400 mg/L): 100%
protectant activity against corn rust in vivo (corn rust; dose 400 mg/L): 100%
protectant activity against wheat powdery mildew in vivo (wheat powdery mildew; dose 400 mg/L): 80%

N#Cc1c(F)c(F)c(Nc2ccccc2)c(F)c1C#N [KC13]
inhibition at 0.3 µg/mL (cucumber gray mold; 0.3 mg/L): 0%
inhibition at 0.9 µg/mL (cucumber gray mold; 0.9 mg/L): 0%
inhibition at 2.8 µg/mL (cucumber gray mold; 2.8 mg/L): 0%
inhibition at 8.3 µg/mL (cucumber gray mold; 8.3 mg/L): 0%
inhibition at 25 µg/mL (cucumber gray mold): 0%
pest or weed control at 12.5 µg/mL (cucumber downy mildew; 12.5 mg/L): 0%
pest or weed control at 25 µg/mL (cucumber downy mildew; 25 mg/L): 0%
pest or weed control at 50 µg/mL (cucumber downy mildew; 50 mg/L): 0%
pest or weed control at 100 µg/mL (cucumber downy mildew; 100 mg/L): 0%
pest or weed control at 400 µg/mL (cucumber downy mildew; dose 400 mg/L): 0%
pest or weed control at 6.25 µg/mL (corn rust; Zea mays, 168 h, 6.25 mg/L): 0%
pest or weed control at 25 µg/mL (corn rust; Zea mays, 168 h, 25 mg/L): 0%
pest or weed control at 100 µg/mL (corn rust; Zea mays, 168 h, 100 mg/L): 0%
pest or weed control at 400 µg/mL (corn rust; Zea mays, 168 h, 400 mg/L, read-out: the protectant activity (%) against corn rust): 0%
pest or weed control at 400 µg/mL (corn rust; [1]): 0%
pest or weed control at 400 µg/mL (wheat powdery mildew; dose 400 mg/L): 0%

Cc1cc([N+](=O)[O-])cc(Cl)c1Nc1c(Cl)c(Cl)c(C#N)c(Cl)c1C#N [Compound B-58]
the inhibition rate against rice blast (%) 0.03 mg/L (rice blast): 0%
the inhibition rate against rice blast (%) 0.1 mg/L (rice blast): 50%
the inhibition rate against rice blast (%) 0.3 mg/L (rice blast): 100%
the inhibition rate against cucumber gray mold (%) (cucumber gray mold; 0.3 mg/L): 80%
the inhibition rate against cucumber gray mold (%) (cucumber gray mold; 0.9 mg/L): 100%
the inhibition rate against cucumber gray mold (%) (cucumber gray mold; 2.8 mg/L): 100%
the inhibition rate against cucumber gray mold (%) (cucumber gray mold; 8.3 mg/L): 100%
inhibition rate against cucumber gray mold (cucumber gray mold; dose 0.3 mg/L): 80%
the protectant activity (%) against cucumber downy mildew (cucumber downy mildew; 12.5 mg/L): 98%
the protectant activity (%) against cucumber downy mildew (cucumber downy mildew; 25 mg/L): 98%
the protectant activity (%) against cucumber downy mildew (cucumber downy mildew; 50 mg/L): 100%
the protectant activity (%) against cucumber downy mildew (cucumber downy mildew; 100 mg/L): 100%
protectant activity against cucumber downy mildew in vivo (cucumber downy mildew; dose 12.5 mg/L): 98%
protectant activity against cucumber downy mildew in vivo (cucumber downy mildew; dose 50 mg/L): 100%
protectant activity against cucumber downy mildew in vivo (cucumber downy mildew; dose 100 mg/L): 100%
protectant activity against cucumber downy mildew in vivo (cucumber downy mildew; dose 400 mg/L): 100%
protectant activity against corn rust in vivo (corn rust; dose 400 mg/L): 100%

N#Cc1c(F)c(F)c(C#N)c(Nc2c(Cl)cc(C(F)(F)F)cc2Cl)c1F [Compound C-98]
inhibition rate against cucumber gray mold (cucumber gray mold; dose 8.3 mg/L): 80%
protectant activity against corn rust in vivo (corn rust; dose 400 mg/L): 100%
protectant activity against wheat powdery mildew in vivo (wheat powdery mildew; dose 100 mg/L): 80%
protectant activity against wheat powdery mildew in vivo (wheat powdery mildew; dose 400 mg/L): 100%

COc1ccc(Nc2c(Cl)c(F)c(C#N)c(F)c2C#N)cc1 [KC20]
inhibition at 0.3 µg/mL (cucumber gray mold; 0.3 mg/L): 0%
inhibition at 0.9 µg/mL (cucumber gray mold; 0.9 mg/L): 0%
inhibition at 2.8 µg/mL (cucumber gray mold; 2.8 mg/L): 0%
inhibition at 8.3 µg/mL (cucumber gray mold; 8.3 mg/L): 0%
inhibition at 25 µg/mL (cucumber gray mold): 50%
pest or weed control at 12.5 µg/mL (cucumber downy mildew; 12.5 mg/L): 0%
pest or weed control at 25 µg/mL (cucumber downy mildew; 25 mg/L): 0%
pest or weed control at 50 µg/mL (cucumber downy mildew; 50 mg/L): 0%
pest or weed control at 100 µg/mL (cucumber downy mildew; 100 mg/L): 0%
pest or weed control at 400 µg/mL (cucumber downy mildew; dose 400 mg/L): 0%
pest or weed control at 400 µg/mL (corn rust; [1]): 0%
pest or weed control at 400 µg/mL (wheat powdery mildew; dose 400 mg/L): 0%

N#Cc1c(Cl)c(Cl)c(Nc2c(Cl)cc([N+](=O)[O-])cc2Cl)c(C#N)c1Cl [Compound B-54]
the inhibition rate against rice blast (%) 0.03 mg/L (rice blast): 0%
the inhibition rate against rice blast (%) 0.1 mg/L (rice blast): 0%
the inhibition rate against rice blast (%) 0.3 mg/L (rice blast): 100%
inhibition rate against rice blast (rice blast; in vitro, dose 0.3 mg/L): 80%
the inhibition rate against cucumber gray mold (%) (cucumber gray mold; 0.3 mg/L): 100%
the inhibition rate against cucumber gray mold (%) (cucumber gray mold; 0.9 mg/L): 100%
the inhibition rate against cucumber gray mold (%) (cucumber gray mold; 2.8 mg/L): 100%
the inhibition rate against cucumber gray mold (%) (cucumber gray mold; 8.3 mg/L): 100%
inhibition rate against cucumber gray mold (cucumber gray mold; dose 0.3 mg/L): 80%
the protectant activity (%) against cucumber downy mildew (cucumber downy mildew; 25 mg/L): 75%
the protectant activity (%) against cucumber downy mildew (cucumber downy mildew; 50 mg/L): 100%
the protectant activity (%) against cucumber downy mildew (cucumber downy mildew; 100 mg/L): 100%
protectant activity against cucumber downy mildew in vivo (cucumber downy mildew; dose 50 mg/L): 100%
protectant activity against cucumber downy mildew in vivo (cucumber downy mildew; dose 100 mg/L): 100%
protectant activity against cucumber downy mildew in vivo (cucumber downy mildew; dose 400 mg/L): 100%
the protectant activity (%) against corn rust (corn rust; 6.25 mg/L): 65%
the protectant activity (%) against corn rust (corn rust; 25 mg/L): 80%
the protectant activity (%) against corn rust (corn rust; 100 mg/L): 90%
the protectant activity (%) against corn rust (corn rust; 400 mg/L): 100%
protectant activity against corn rust in vivo (corn rust; dose 400 mg/L): 100%

N#Cc1cc([N+](=O)[O-])cc(Br)c1Nc1c(Cl)c(Cl)c(C#N)c(C#N)c1Cl [Compound A-42]
protectant activity against wheat powdery mildew in vivo (wheat powdery mildew; dose 100 mg/L): 80%
protectant activity against wheat powdery mildew in vivo (wheat powdery mildew; dose 400 mg/L): 98%

COc1c(Cl)c(Nc2c(Cl)cc([N+](=O)[O-])cc2Cl)c(C#N)c(Cl)c1C#N [Compound B-74]
the inhibition rate against rice blast (%) 0.03 mg/L (rice blast): 0%
the inhibition rate against rice blast (%) 0.1 mg/L (rice blast): 50%
the inhibition rate against rice blast (%) 0.3 mg/L (rice blast): 100%
the inhibition rate against cucumber gray mold (%) (cucumber gray mold; 0.9 mg/L): 80%
the inhibition rate against cucumber gray mold (%) (cucumber gray mold; 2.8 mg/L): 100%
the inhibition rate against cucumber gray mold (%) (cucumber gray mold; 8.3 mg/L): 100%
the protectant activity (%) against cucumber downy mildew (cucumber downy mildew; 25 mg/L): 80%
the protectant activity (%) against cucumber downy mildew (cucumber downy mildew; 50 mg/L): 98%
the protectant activity (%) against cucumber downy mildew (cucumber downy mildew; 100 mg/L): 100%
protectant activity against cucumber downy mildew in vivo (cucumber downy mildew; dose 50 mg/L): 98%
protectant activity against cucumber downy mildew in vivo (cucumber downy mildew; dose 100 mg/L): 100%
protectant activity against cucumber downy mildew in vivo (cucumber downy mildew; dose 400 mg/L): 100%
the protectant activity (%) against corn rust (corn rust; 6.25 mg/L): 40%
the protectant activity (%) against corn rust (corn rust; 25 mg/L): 70%
the protectant activity (%) against corn rust (corn rust; 100 mg/L): 95%
the protectant activity (%) against corn rust (corn rust; 400 mg/L): 100%
protectant activity against corn rust in vivo (corn rust; dose 400 mg/L): 100%

N#Cc1c(F)c(F)c(C#N)c(Nc2ccc(Cl)c(C(F)(F)F)c2)c1F [Compound C-91]
protectant activity against wheat powdery mildew in vivo (wheat powdery mildew; dose 6.25 mg/L): 70%
protectant activity against wheat powdery mildew in vivo (wheat powdery mildew; dose 100 mg/L): 95%
protectant activity against wheat powdery mildew in vivo (wheat powdery mildew; dose 400 mg/L): 100%

N#Cc1c(Cl)c(Cl)c(C#N)c(Nc2c(Cl)cc(C(F)(F)F)cc2Cl)c1Cl [Compound C-50]
the inhibition rate against rice blast (%) 0.03 mg/L (rice blast): 100%
the inhibition rate against rice blast (%) 0.1 mg/L (rice blast): 100%
the inhibition rate against rice blast (%) 0.3 mg/L (rice blast): 100%
protectant activity against corn rust in vivo (corn rust; dose 400 mg/L): 100%
protectant activity against wheat powdery mildew in vivo (wheat powdery mildew; dose 400 mg/L): 100%

N#Cc1c(F)c(F)c(C#N)c(Nc2ccc(C(F)(F)F)cc2Cl)c1F [Compound C-82]
protectant activity against cucumber downy mildew in vivo (cucumber downy mildew; dose 400 mg/L): 100%
protectant activity against wheat powdery mildew in vivo (wheat powdery mildew; dose 400 mg/L): 100%

From patent publication US8937072B2, “Substituted cyanoaniline compounds, preparation and use thereof” (Sinochem Corporation, priority 2011, dated 2015)
